The source made the active and inactive calls.
Experiments:
Estrogen receptor beta [1] = target: T1, Estrogen receptor beta (Homo sapiens, UniProt Q92731);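 also: recombinant ER-beta bound to coactivator SRC1 peptide in presence of estradiol agonist; inhibitors block coactivator peptide binding and lower the FRET signal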
Estrogen receptor beta [2] = target: T1, Estrogen receptor beta; assay: blockers of SRC-3 recruitment to ERβ – biochemical, ELISA, streptavidin-HRP readout, orthogonal assay, confirmation (AID 1060)
Protein skinhead-1 = target: T2, Protein skinhead-1 (Caenorhabditis elegans, UniProt P34707); format: functional
T2 sequence (P34707 whole entry): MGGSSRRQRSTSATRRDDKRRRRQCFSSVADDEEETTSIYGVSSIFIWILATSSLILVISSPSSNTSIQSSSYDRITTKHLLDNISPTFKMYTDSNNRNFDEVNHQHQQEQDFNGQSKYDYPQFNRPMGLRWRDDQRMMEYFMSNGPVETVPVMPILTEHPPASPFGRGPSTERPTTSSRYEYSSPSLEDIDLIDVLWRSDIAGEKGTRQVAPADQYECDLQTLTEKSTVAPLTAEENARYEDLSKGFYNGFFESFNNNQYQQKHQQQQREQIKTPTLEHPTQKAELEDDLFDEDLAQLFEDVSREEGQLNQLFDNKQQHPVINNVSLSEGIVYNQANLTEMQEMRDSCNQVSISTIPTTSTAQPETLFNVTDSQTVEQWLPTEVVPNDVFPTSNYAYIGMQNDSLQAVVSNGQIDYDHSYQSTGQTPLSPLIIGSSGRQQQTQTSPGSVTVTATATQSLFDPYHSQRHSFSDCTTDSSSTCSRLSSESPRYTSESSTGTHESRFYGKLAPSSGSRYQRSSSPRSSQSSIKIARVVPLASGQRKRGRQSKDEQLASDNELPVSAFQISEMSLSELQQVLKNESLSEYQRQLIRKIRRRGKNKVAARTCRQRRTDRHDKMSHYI

Transthyretin = Transthyretin (Homo sapiens, UniProt P02766); assay: Luminescence-based cell-based high throughput dose response assay to identify activators of Transthyretin (TTR) transcription.; format: functional
[3] = Luminescence Cell-Based Dose Retest to Confirm Inhibitors of Cancer Stem Cells. [Related pubchem assays (depositor defined):AID2717, AID2721]; format: functional; conditions: Homo sapiens
[4] = viability inhibitors of stage V gametocytes – luminescence, dose response (AID 1117278); format: functional, cell-based;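 also: gametocytes exposed to compound for 24 hours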
[5] = viability loss in human Jurkat cells – cell-based, luminescence, cytotoxicity control for P. falciparum gametocyte viability project, dose response (AID 1117277); format: functional;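 also: potency reflects loss of cellular ATP meaning fewer viable cells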
Estrogen receptor = target: T3, Estrogen receptor (Homo sapiens, UniProt P03372); assay: ERα coactivator recruitment enhancers – biochemical, TR-FRET, ERα LBD, dose response (AID 737)
T3 sequence (P03372 whole entry): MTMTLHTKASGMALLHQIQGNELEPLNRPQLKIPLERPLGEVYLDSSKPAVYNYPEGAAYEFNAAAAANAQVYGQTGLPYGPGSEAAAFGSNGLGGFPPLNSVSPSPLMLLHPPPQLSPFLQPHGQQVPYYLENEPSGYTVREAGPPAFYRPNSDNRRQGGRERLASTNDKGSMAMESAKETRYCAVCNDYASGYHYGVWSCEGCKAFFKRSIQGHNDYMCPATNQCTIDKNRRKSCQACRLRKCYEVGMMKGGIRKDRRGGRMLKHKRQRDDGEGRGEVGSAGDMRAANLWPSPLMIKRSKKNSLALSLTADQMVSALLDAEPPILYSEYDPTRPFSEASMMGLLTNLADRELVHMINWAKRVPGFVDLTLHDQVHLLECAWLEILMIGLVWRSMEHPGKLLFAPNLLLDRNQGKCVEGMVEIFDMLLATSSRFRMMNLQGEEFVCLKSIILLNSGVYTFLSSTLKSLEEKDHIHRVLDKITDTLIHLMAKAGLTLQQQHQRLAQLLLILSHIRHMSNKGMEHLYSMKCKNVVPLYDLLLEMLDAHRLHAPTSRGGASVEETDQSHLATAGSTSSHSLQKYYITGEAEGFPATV

Leucine aminopeptidase = target: T4, Leucine aminopeptidase (Plasmodium falciparum 3D7, UniProt Q8IL11); assay: P. falciparum M17LAP inhibitors, primary screen, biochemical, fluorogenic H-Leu-NHMec substrate, 1536-well (AID 1619); format: functional
T4 sequence (Q8IL11 whole entry): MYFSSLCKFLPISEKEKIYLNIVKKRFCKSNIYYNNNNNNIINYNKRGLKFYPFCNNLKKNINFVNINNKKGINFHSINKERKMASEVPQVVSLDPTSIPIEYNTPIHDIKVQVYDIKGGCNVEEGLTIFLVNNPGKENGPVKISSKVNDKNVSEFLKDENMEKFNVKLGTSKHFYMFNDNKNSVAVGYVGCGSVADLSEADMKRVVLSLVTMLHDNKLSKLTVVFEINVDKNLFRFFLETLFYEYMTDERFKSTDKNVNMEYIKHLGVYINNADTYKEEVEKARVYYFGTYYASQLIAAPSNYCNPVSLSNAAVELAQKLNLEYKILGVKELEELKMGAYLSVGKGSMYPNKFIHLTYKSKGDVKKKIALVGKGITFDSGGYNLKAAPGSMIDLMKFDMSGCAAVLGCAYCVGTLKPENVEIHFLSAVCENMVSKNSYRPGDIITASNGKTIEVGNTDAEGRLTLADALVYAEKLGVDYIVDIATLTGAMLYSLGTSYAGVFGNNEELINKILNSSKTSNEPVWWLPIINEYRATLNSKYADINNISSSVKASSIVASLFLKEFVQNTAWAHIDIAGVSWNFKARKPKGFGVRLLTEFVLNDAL

[6] = target: T5, Replicative DNA helicase DnaB (Mycobacterium tuberculosis, UniProt P9WMR3); assay: DnaB intein splicing inhibitors, dose response, biochemical, cell-free fluorescence (AID 449749); format: functional
T5 sequence (P9WMR3 whole entry): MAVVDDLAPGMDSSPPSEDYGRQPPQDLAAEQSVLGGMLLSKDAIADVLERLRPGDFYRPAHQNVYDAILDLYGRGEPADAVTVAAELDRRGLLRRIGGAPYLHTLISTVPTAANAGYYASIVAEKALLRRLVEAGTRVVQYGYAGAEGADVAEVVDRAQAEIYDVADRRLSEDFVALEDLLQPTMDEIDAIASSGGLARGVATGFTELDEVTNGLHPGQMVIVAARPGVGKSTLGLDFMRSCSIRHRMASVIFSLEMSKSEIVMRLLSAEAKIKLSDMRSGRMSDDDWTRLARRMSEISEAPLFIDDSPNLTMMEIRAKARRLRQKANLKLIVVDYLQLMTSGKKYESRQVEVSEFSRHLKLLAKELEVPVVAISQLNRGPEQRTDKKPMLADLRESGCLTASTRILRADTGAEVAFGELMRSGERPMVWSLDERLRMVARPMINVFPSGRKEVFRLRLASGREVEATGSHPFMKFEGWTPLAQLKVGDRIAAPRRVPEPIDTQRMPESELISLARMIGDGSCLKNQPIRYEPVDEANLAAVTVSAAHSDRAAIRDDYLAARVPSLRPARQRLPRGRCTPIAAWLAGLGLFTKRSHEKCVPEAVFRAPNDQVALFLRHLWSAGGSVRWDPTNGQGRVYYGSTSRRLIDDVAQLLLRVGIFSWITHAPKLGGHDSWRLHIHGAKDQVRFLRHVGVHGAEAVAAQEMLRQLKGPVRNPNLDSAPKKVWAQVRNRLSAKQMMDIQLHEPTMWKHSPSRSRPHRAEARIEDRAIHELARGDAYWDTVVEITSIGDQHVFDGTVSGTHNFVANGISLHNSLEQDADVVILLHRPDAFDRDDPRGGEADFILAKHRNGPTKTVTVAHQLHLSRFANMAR

Protein RecA = target: T6, Protein RecA (Mycobacterium tuberculosis, UniProt P9WHJ3); assay: Fluorescence Cell-Free Homogeneous Dose Retest to Identify Inhibitors of RecA-Intein Splicing Activity. [Related pubchem assays (depositor defined):AID2097, AID2223, AID489010, AID492950]; format: functional
T6 sequence (P9WHJ3 whole entry): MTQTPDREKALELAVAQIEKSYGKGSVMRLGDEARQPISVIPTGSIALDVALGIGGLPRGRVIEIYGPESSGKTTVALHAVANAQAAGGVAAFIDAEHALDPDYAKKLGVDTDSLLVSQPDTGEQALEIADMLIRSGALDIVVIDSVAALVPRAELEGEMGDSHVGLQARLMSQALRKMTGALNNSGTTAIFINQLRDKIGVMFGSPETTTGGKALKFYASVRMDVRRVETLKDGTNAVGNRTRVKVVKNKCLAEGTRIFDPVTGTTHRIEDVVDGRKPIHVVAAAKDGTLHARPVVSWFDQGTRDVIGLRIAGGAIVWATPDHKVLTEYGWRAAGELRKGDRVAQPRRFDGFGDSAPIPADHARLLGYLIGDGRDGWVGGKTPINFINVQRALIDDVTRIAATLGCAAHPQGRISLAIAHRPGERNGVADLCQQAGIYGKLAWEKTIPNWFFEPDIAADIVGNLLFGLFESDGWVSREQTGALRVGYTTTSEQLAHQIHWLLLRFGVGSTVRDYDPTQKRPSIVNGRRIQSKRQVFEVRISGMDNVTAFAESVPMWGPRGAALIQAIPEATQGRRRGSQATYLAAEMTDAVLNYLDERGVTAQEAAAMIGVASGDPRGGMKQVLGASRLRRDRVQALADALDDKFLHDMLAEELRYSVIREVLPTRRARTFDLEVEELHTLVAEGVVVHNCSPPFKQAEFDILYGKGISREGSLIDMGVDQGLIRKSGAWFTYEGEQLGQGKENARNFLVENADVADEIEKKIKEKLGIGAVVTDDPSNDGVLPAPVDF

[7] = target: ADP-ribosylation factor GTPase-activating protein 1 (Rattus norvegicus, UniProt Q62848); assay: Fluorescence polarization-based biochemical high throughput dose response screening assay to identify inhibitors of ADP-ribosylation factor GTPase activating protein 1 (ARFGAP1).; format: functional
HT-1080 = assay: HT1080 cell viability loss – fluorescence readout (AID 620); format: functional, cell-based; conditions: Homo sapiens
[8] = target: Arf-GAP with SH3 domain, ANK repeat and PH domain-containing protein 1 (Homo sapiens, UniProt Q9ULH1); format: functional;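 also: biochemical fluorescence polarization dose–response screen measuring inhibition of ASAP1; ASAP1 GAP domain stimulating GTP hydrolysis by truncated human ARF1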
Arf-GAP with SH3 domain, ANK repeat and PH domain-containing protein 1, sequence (Q9ULH1 whole entry, the tested form may be a part): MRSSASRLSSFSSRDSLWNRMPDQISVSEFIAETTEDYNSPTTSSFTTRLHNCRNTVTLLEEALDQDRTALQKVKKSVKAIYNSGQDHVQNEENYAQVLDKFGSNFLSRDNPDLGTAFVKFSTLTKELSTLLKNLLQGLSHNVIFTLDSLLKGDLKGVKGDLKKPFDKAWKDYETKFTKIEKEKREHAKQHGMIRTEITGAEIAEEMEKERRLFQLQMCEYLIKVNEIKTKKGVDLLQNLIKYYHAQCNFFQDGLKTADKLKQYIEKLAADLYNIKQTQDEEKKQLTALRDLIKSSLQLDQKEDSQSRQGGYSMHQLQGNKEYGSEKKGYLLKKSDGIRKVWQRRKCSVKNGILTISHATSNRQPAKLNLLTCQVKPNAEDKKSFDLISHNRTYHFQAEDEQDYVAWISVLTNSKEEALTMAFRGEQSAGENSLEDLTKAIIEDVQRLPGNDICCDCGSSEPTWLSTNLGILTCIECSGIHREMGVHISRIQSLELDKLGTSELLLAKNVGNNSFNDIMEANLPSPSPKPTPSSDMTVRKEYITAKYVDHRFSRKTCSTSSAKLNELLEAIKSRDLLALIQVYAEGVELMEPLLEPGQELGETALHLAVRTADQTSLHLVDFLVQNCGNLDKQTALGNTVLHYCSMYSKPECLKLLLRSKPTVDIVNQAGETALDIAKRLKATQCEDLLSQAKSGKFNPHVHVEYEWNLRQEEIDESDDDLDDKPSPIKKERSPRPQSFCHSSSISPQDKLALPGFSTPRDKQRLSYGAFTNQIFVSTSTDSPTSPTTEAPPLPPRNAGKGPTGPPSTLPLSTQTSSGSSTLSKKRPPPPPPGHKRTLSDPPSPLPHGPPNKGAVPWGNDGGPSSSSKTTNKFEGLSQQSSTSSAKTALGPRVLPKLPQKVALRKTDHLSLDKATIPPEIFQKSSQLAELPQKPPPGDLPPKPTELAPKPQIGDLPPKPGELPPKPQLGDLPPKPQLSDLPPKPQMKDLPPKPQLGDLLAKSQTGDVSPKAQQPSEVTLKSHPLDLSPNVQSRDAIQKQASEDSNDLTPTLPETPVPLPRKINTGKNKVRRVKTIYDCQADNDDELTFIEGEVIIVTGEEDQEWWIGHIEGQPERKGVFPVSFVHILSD

T1 sequence (Q92731 whole entry): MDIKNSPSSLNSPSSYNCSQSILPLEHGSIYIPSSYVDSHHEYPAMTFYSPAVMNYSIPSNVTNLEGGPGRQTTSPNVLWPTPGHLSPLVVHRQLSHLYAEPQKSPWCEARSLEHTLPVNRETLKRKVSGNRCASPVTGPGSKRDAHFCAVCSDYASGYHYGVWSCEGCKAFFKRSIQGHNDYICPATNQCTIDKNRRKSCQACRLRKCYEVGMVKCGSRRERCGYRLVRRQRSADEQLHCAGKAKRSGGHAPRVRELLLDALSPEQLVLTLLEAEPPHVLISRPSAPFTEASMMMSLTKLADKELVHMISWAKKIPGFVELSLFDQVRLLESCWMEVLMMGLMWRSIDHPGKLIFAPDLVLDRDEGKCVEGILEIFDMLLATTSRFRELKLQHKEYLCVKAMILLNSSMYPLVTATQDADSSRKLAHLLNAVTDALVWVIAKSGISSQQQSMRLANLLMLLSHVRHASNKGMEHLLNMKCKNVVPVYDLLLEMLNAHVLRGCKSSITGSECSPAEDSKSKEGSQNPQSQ
ADP-ribosylation factor GTPase-activating protein 1, sequence (Q62848 whole entry): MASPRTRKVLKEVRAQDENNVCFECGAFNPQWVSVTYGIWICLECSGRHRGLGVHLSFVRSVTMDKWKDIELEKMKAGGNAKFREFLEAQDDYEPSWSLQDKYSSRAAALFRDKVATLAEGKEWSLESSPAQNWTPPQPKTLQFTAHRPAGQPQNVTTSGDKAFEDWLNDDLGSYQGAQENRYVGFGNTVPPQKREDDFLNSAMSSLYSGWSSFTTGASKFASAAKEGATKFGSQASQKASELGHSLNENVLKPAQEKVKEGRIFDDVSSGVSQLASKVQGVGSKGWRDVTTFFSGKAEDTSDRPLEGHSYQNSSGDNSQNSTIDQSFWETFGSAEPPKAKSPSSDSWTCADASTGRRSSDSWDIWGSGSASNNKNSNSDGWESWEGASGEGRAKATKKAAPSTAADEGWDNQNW

## CCOC(=O)c1c(C)[nH]c(C)c1C(=O)COC(=O)CCOc1ccccc1OC
Estrogen receptor beta [1]
  IC50: 35.3 µM (not active)
Estrogen receptor beta [2]
  IC50: > 109 µM (not active)

## O=[N+]([O-])c1cccc(-c2noc(-c3ccco3)n2)c1
Protein skinhead-1
  IC50: > 100 µM (inactive)
Transthyretin
  EC50: > 167 µM (inactive)

## Cc1ccc(C(=O)NC2c3ccccc3-c3ccccc32)cc1
[3]
  AC50: 0.448 µM (active)
[4]
  IC50: > 109 µM (inactive)
[5]
  IC50: > 1.03 µM (active)

## CCOc1ccccc1C1C(C#N)=C(N)Nc2onc(-c3ccccc3)c21 (centres undefined)
Estrogen receptor
  EC50: 17.5 µM (active)
Leucine aminopeptidase
  IC50: 52.7 µM (active)
[6]
  AC50: 2.47 µM (active)
Protein RecA
  EC50: 1.39 µM (active)

## Cc1cc(C(=O)COC(=O)c2[nH]nc3ccccc23)c(C)n1C
[7]
  IC50: 32.4 µM (inactive)
HT-1080
  EC50: > 50 µM (not active)
[8]
  IC50: 37.6 µM (inactive)

From ChEMBL document CHEMBL1201862, “PubChem BioAssay data set” (2004)
